From patent US20240092756A1, “METHODS AND COMPOSITION FOR KRAS MODIFICATIONS” (2692372 ONTARIO, INC., priority 2020, published 2024)

Target: KRAS G12C (Homo sapiens, UniProt P01116, G12C)
Assay: SOS1-catalyzed KRAS coupled nucleotide exchange assay (Alpha technology)
Type: biochemical
Parameters: His; key: A: KRAS G12C bound and modulated
Conditions: inhibition of SOS1 mediated KRAS nucleotide exchange
Procedure, shortened: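 Alpha readout of c-RAF RBD binding to GTP-bound KRAS, normalized to DMSO. Method I: 20 nM GDP-KRAS G12C/C118A with compound 5 min, then 1.25 mM GTP + 500 nM SOS-1 30 min, pH 7.4 HEPES/MgCl2 buffer, 50 nM RBD. Method II: 50 nM GDP-KRAS G12C with compound 2 h, 1 mM GTP + 500 nM SOS-1 30 min, 2.5 nM GST-RBD; RT throughout.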

Compound | KRAS-SOS1 Nucleotide Exchange
Cc1ccnc(C(C)C)c1-n1c(=O)nc(NC2CN(S(=O)(=O)c3c(F)c(F)c(F)c(F)c3C(F)(F)F)C2)c2cc(F)c(Cl)nc21 [Compound 14A, 7-chloro-6-fluoro-1-(2-isopropyl-4-methylpyridin-3-yl)-4-((1-((2,3,4,5-tetrafluoro-6-(trifluoromethyl)phenyl)sulfonyl)azetidin-3-yl)amino)pyrido[2,3-d]pyrimidin-2(1H)-one] | A
Cc1ccnc(C(C)C)c1-n1c(=O)nc(NC2CN(S(=O)(=O)c3c(F)c(F)c(F)c(F)c3C(F)(F)F)C2)c2cc(F)c(-c3c(O)cccc3F)nc21 [Compound 15A, 6-fluoro-7-(2-fluoro-6-hydroxyphenyl)-1-(2-isopropyl-4-methylpyridin-3-yl)-4-((1-((2,3,4,5-tetrafluoro-6-(trifluoromethyl)phenyl)sulfonyl)azetidin-3-yl)amino)pyrido[2,3-d]pyrimidin-2(1H)-one] | A
